According to patent US7795311B2, “Methods and compositions for the management of soil-borne fungal diseases” (Pittsburg State University, priority 2007, dated 2010):
Several values for one entry are separate records, joined by “and”; a condition that tells them apart may be missing. Equal values may be shown once.

What was measured:
[1] = system: Pythium, Phytophthora, Phomopsis and Rhizoctonia fungal pathogens; test: Field trial 2003-2005: soybean viability at R8 by seed/foliar treatment; assay type: in vivo; parameters: viability average: concentration or dose not given beside the values
Excerpt: (§1) Test plots were organized into randomized block design consisting of fifteen (15) total treatments. Treatments included either a control group, a seed treatment, foliar treatment, or a combination seed and foliar treatment. Each treatment consisted of four (4), twenty-five (25) foot rows in each test plot. The fifteen (15) treatment blocks were planted in quadruplicate for a total of sixty (60) test plots. The test plots were labeled with numerical identification markers which represent the treatment, plot, and replication number. No samples were taken from the two (2) interior rows of each plot so that they could be used for counting plant mortality and harvested for seed yields. The two (2) outside rows were used to sample plants.
(§2) Seeds were treated with stock solutions of the following treatments. Carbenoxolone disodium salt 0, 125, 250, 500 and 1000 μg/L High Grade was utilized for management of Pythium, Phytophthora, Phomopsis and Rhizoctonia fungal pathogens. Gustafson's Magnacoat® (Gustafson, LLC, Plans, Tex.) was used as a seed-coating polymer in conjunction with the other treatment and as a control treatment. For example, stock solutions were prepared in 500 mL beakers as follows: […] High Grade was prepared by adding 0.105 g of 99% pure Carbenoxolone to 65 mL deionized water and mixing using a spatula until completely dissolved, then adding 35 mL Magnacoat® and 5 mL green Pro-lzed® colorant and mixing until homogenous for a total of 105 mL.
(§3) Seeds for each row were treated separately with compounds. A 2.1 mL sample was taken from the stock solution via pipette and placed in a 200 mL glass beaker. A single row seed sample was added to the beaker and the seeds were mixed with a glass stir rod until the seeds were completely covered. The samples were then spread onto a wax sheet and allowed to dry for one (1) to two (2) hours. Each treated seed sample was placed in a labeled twenty pound (20 lb), 4×6 inch manila coin envelope.
(§4) Foliar treatments were prepared on site. R1 and R4 Foliar Carbenoxolone 1000μ/mL treatments were prepared by adding 3.785 g Carbenoxolone to 1 gallon of water and mixed until dissolved. The mixture was then sprayed directly onto foliage using specialized CO2 pressurized aerosol spray equipment set at a spray rate of 1 gallon/100 ft for four (4), twenty-five (25) foot rows and two (2) rows wide.
The viability data was obtained by totaling the number of healthy plants within the two (2) yield rows at the end of the growing season when plants reached developmental stage R8 and these totals were averaged and standard deviations calculated for all four (4) repetitions per treatment. […] Viability averages of all treatment repetitions for a growing year, for three (3) years of field-testing are compared in FIG. 7. Viability indicates the number of healthy plants at the end of the growing season. Similar to FIGS. 5 and 6, treatments were either untreated control seed or seeds treated with the polymer in combination with Carbenoxolone. Foliar treatments indicate that the same compound used as a seed treatment was then applied as a foliar spray at a set plant development stage (R1 or R4). Percentage is based on the average number of viable plants counted at R8.

[2] = system: Pythium, Phytophthora, Phomopsis and Rhizoctonia fungal pathogens; test: Field trial 2003-2005: soybean post-emergence mortality by seed/foliar treatment; assay type: in vivo; parameters: concentration or dose not given beside the values
Excerpt: as §1, §2, §3, §4
(§5) Germination data was taken at V1 by counting the emergent plants in the two (2) inner yield rows. Plant counts were used to compare with number of seeds planted to determine pre-emergence mortality due to soil-borne early season disease pressure. At the end of the growing season at developmental stage […] when plants were mature, but before full senescence, dead plants were counted. Plant counts were used to determine mortality data for the season caused by overall disease pressure.
Post-emergence mortality was obtained by totaling the number of dead plants at the end of the growing season as compared to the number of plants that successfully emerged. Plant mortality counts were taken at developmental stage R8, within the two (2) yield rows and an average of these mortality totals was obtained for all four (4) repetitions. Post-emergence mortality averages and standard deviations for all four (4) repetitions and treatments over three (3) years of testing are compared in FIG. 6. Post-emergence mortality indicates the number of plants that died within the growing season after emergence. Similar to FIG. 5, treatments were either untreated control seed or seeds treated with the polymer in combination with Carbenoxolone. Foliar treatments indicate that the same compound used as a seed treatment was then applied as a foliar spray at a set plant development stage (R1 or R4). The percentage is based on the average of V1 emerged viable seedlings counted compared to the R8 viable plants counted.

[3] = system: soil-borne fungal diseases; test: 1999 and 2000 foliar treatment field trial: viability and mortality data; assay type: in vivo, soybean; settings: 1999 foliar treatment
Protocol: as §4
FIGS. 1 and 3 depict the 1999 and 2000 Foliar Treatment Viability and Mortality Data. In 1999, the Carbenoxolone concentration was varied between 125 and 1000 μg/ml diluted in one gallon of water. The treatment composition was applied to the canopy of plants at various developmental stages (V-2, R-1 and R-6). The foliar application was accomplished using the pressurized boom-spray unit attached to a tractor at reproductive stage V-2 or R-1, or by a backpack spray unit at reproductive stage R-6. The mortality and viability data were collected at developmental stage R-8, usually around week eleven (11) or twelve (12) in the plant's lifecycle. Also shown in FIGS. 1 and 3, the percent mortalities were calculated based on the number of plants that died at twelve (12) weeks of growth as compared to the total number of seeds planted per treatment. The viability percentages as shown in FIGS. 1 and 3 were calculated from the total number of seeds planted per treatment, as compared to the viability data taken at three (3) weeks of growth. The seed germination rate was greater than 99% and was determined prior to planting. […] This appears unchanged from the untreated control, which had similar percentages. […] The Carbenoxolone treatment solution having 125 μg/ml has a mortality percentage of approximately 10.4% compared to a mortality percentage of an uncontrolled of 20%.
The […] foliar treatment using Cabenoxolone also had similar results as in 1999. The mortality percentage of plants treated with a Carbenoxolone solution decreased when compared to an untreated control.

[4] = system: Pythium, Phytophthora, Phomopsis and Rhizoctonia fungal pathogens; test: Field trial 2003-2005: soybean pre-emergence mortality by seed/foliar treatment; assay type: in vivo; parameters: pre-emergence mortality, average non-emergent seeds: concentration or dose not given beside the values
Excerpt: as §1, §2, §3, §4, §5
In the yield rows, two-hundred and forty (240) seeds were planted per row in the yield rows at the beginning of the growing season, flanked by two (2) rows (two-hundred and forty (240) seeds in each row) for plant sampling. Rows were end trimmed to final twenty-five (25) foot rows with two-hundred (200) seed per row and eight (8) seeds per foot. Mortality data was determined only from the interior yield rows. An average of these pre-emergence mortality totals, (four-hundred (400) seeds in two (2) rows) for all four (4) repetitions was taken to represent pre-emergence mortality. Pre-emergence mortality averages for each treatment with calculated standard deviations are compared in FIG. 5. Pre-emergence mortality indicates the number of plants that died before emergence. Treatments were either untreated control seed or seeds treated with the polymer in combination with Carbenoxolone. Foliar treatments indicate that the same compound used as a seed treatment was then applied as a foliar spray at a set plant development stage (R1 or R4). […]

[5] = Field trial 2003-2005: seed yield; assay type: in vivo, soybean
Excerpt: At the end of the growing seasons, marked by plant senescence, the two (2) interior yield rows were harvested using a Massey-Ferguson two-row experimental test, combined with an onboard computer processor for determining seed weight, seed moisture and collection of samples. Yield data included seed moisture and seed weight, which were used to determine the overall yield for each test plot.
Yield data was obtained from the two (2) yield rows of twenty-five (25) feet using a conversion equation which utilized the fraction of acreage predetermined test weight and adjusted moisture of the seeds harvested. Yield values represent bushels per acre adjusted for moisture and test weight. […] Multiple comparisons were tested at α=0.1. Again as with previous Figures, treatments were either untreated control seed or seeds treated with a seed coating polymer in combination with Carbenoxolone. Foliar treatments indicate that the same compound used as a seed treatment was then applied as a foliar spray at a set plant development stage (R1 or R4).

[6] = system: soil-borne fungal diseases; test: 1999/2000 foliar application: mean disease rating and percent mortality; assay type: in vivo, soybean; settings: dead plants / germinated plants, week 11
Excerpt: Beginning at developmental stage V1, a visual disease rating was employed to determine the overall visual health of the plant based on foliar, pod and stem disease. The foliar disease rating system was based from the Soybean Diseases Atlas by the Southern Soybean Disease Workers (W. J. Walla, ed. 1979, Texas A&M University). A 1-5 rating system was utilized, wherein 1=0%, 2=25%, 3=50%, 4=75%, 5=100% based on leaf area affected by disease symptoms.
FIG. 2 illustrates the 1999 Mean Disease Rating for Each Foliar Application, Percent Mortality and the Statistical Significance as Measured by the Student-Newman-Keuls (“SNK”) Analysis. The disease ratings as shown in FIGS. 2 and 4 are an objective number rating assigned as a percentage of a plot infected having a rating scale of 1=0%, 2=25%, 3=50%, 4=75% and 5=100%. The SNK data comprising letters which are different are statistically significant from other letter assigned data sets, which allows the single year data to show how weather influences the outcome of the treatment. […] The mortality count was taken at week eleven (11) in the 1999 and 2000 growing seasons. As previously stated, the SNK statistical analysis illustrate the statistical significance of the data, wherein means with the same letter are not statistically different. […] Even lower, 1000 μg/ml of Carbenoxolone solution a mortality rate of 22%.

[7] = seed combined with R1 foliar, 2003
[8] = seed combined with R1 foliar, 2004
[9] = seed combined with R1 foliar, 2005
[10] = seed combined with R4 foliar, 2003
[11] = seed combined with R4 foliar, 2004
[12] = seed combined with R4 foliar, 2005
[13] = seed treatment (with polymer), 2003
[14] = seed treatment (with polymer), 2004
[15] = seed treatment (with polymer), 2005
[16] = seed treatment combined with R1 foliar, three years of testing

SMILES: CC1(C)[C@@H](OC(=O)CCC(=O)O)CC[C@]2(C)[C@H]3C(=O)C=C4[C@@H]5C[C@@](C)(C(=O)O)CC[C@]5(C)CC[C@@]4(C)[C@]3(C)CC[C@@H]12 [Carbenoxolone, 3β-hydroxy-11-oxoolean-12-en-30-oic acid 3-hemisuccinate disodium]
- viability average ([1]; R1 foliar only, 2003): 77.08%
- viability average ([1]; R1 foliar only, 2004): 63.33%
- viability average ([1]; R1 foliar only, 2005): 77.5%
- viability average ([1]; R4 foliar only, 2003): 69.16%
- viability average ([1]; R4 foliar only, 2004): 60.83%
- viability average ([1]; R4 foliar only, 2005): 76.66%
- Dunnett's t Test analysis of viability data compared to the untreated control ([1]; seed combined with R1 foliar): statistically significant difference
- viability average [1, 7]: 74.58%
- viability average [1, 8]: 63.75%
- viability average [1, 9]: 74.58%
- viability average [1, 10]: 69.58%
- viability average [1, 11]: 62.08%
- viability average [1, 12]: 75.83%
- viability average ([1]; seed treatment (with polymer), 2003, plants at R8): 78.39%
- viability average ([1]; seed treatment (with polymer), 2004, plants at R8): 61.66%
- viability average ([1]; seed treatment (with polymer), 2005, plants at R8): 75.41%
- post-emergence mortality average ([2]; R1 foliar only, 2003): 5.0%
- post-emergence mortality average ([2]; R1 foliar only, 2004): 1.6%
- post-emergence mortality average ([2]; R1 foliar only, 2005): 3.33%
- post-emergence mortality average ([2]; R4 foliar only, 2003): 6.25%
- post-emergence mortality average ([2]; R4 foliar only, 2004): 1.6%
- post-emergence mortality average ([2]; R4 foliar only, 2005): 3.33%
- post-emergence mortality average [2, 7]: 5.41% and 5%
- post-emergence mortality average [2, 9]: 3.33%
- post-emergence mortality average [2, 11]: 2.08%
- post-emergence mortality average [2, 12]: 2.5% and 2%
- post-emergence mortality average [2, 13]: 5.0%
- post-emergence mortality average [2, 14]: 2.08%
- post-emergence mortality average [2, 15]: 2.5%
- increase of viability percentage from the untreated control ([3]; 125 μg/ml): approximately 10%
- mortality percentage ([3]; 125 μg/ml): approximately 10.4%
- mortality rate ([3]; 1000 μg/ml, plants dead at 12 weeks vs seeds planted): approximately 20%
- viability rate ([3]; 1000 μg/ml, viability at 3 weeks vs seeds planted): approximately 80%
- pre-emergence mortality, average non-emergent seeds ([4]; R1 foliar only (untreated seed), 2003): 27.50%
- pre-emergence mortality, average non-emergent seeds ([4]; R1 foliar only (untreated seed), 2004): 41.25%
- pre-emergence mortality, average non-emergent seeds ([4]; R1 foliar only (untreated seed), 2005): 27.08%
- pre-emergence mortality, average non-emergent seeds ([4]; R4 foliar only (untreated seed), 2003): 35.41%
- pre-emergence mortality, average non-emergent seeds ([4]; R4 foliar only (untreated seed), 2004): 43.75%
- pre-emergence mortality, average non-emergent seeds ([4]; R4 foliar only (untreated seed), 2005): 27.91%
- pre-emergence mortality, average non-emergent seeds [4, 7]: 30.0%
- pre-emergence mortality, average non-emergent seeds [4, 8]: 41.24%
- pre-emergence mortality, average non-emergent seeds [4, 9]: 30.0%
- pre-emergence mortality, average non-emergent seeds [4, 10]: 36.66%
- pre-emergence mortality, average non-emergent seeds [4, 11]: 42.5%
- pre-emergence mortality, average non-emergent seeds [4, 12]: 28.75%
- pre-emergence mortality, average non-emergent seeds [4, 13]: 26.25% and 26%
- average germination higher in 2003 compared to 2004 ([4]; seed treatment (with polymer), 2003 vs 2004): 17%
- pre-emergence mortality, average non-emergent seeds [4, 14]: 43.33% and 43%
- pre-emergence mortality, average non-emergent seeds [4, 15]: 29.16% and 29%
- improvement of the average yield ([5]; 2003-2005, not statistically significant): approximately 1.5 bushels/acre
- increase of yield [5, 16]: 1.5 bushels per acre
- increase of yield compared to other treatments [5, 16]: 6.9%
- mortality rate ([6]; foliar 500 μg/ml): 26%
- mortality rate ([6]; foliar 1000 μg/ml): 22%
